Test system: 362531-283-R-J2-PDC complex spheroid viability
Assay: Anticancer human tumor 362531-283-R-J2-PDC patient-derived colon adenocarcinoma cell line growth inhibition [RAS]
Settings: for IC50: curve of first compound; for viability, T/C: stronger effect = lower value
Outline: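 Agents were tested in combination matrices in half-log decrements from a top concentration at or near clinical Cmax (10 microM if undetermined). Targets were multi-cell spheroids of tumour lines plus HUVEC and MSC stromal cells.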

[1] = second compound 0.00316 µM, first compound 0.0316 µM
[2] = second compound 0.00316 µM, first compound 0.1 µM
[3] = second compound 0.00316 µM, first compound 0.316 µM
[4] = second compound 0.00316 µM, first compound 1 µM
[5] = second compound 0.00316 µM, first compound 3.16 µM
[6] = second compound 0.00316 µM, first compound 10 µM
[7] = second compound 0.01 µM, first compound 0.0316 µM
[8] = second compound 0.01 µM, first compound 0.1 µM
[9] = second compound 0.01 µM, first compound 0.316 µM
[10] = second compound 0.01 µM, first compound 1 µM
[11] = second compound 0.01 µM, first compound 3.16 µM
[12] = second compound 0.01 µM, first compound 10 µM
[13] = second compound 0.0316 µM, first compound 0.0316 µM
[14] = second compound 0.0316 µM, first compound 0.1 µM
[15] = second compound 0.0316 µM, first compound 0.316 µM
[16] = second compound 0.0316 µM, first compound 1 µM
[17] = second compound 0.0316 µM, first compound 3.16 µM
[18] = second compound 0.0316 µM, first compound 10 µM
[19] = second compound 0.1 µM, first compound 0.0316 µM
[20] = second compound 0.1 µM, first compound 0.1 µM
[21] = second compound 0.1 µM, first compound 0.316 µM
[22] = second compound 0.1 µM, first compound 1 µM
[23] = second compound 0.1 µM, first compound 3.16 µM
[24] = second compound 0.1 µM, first compound 10 µM
[25] = second compound 0.316 µM, first compound 0.0316 µM
[26] = second compound 0.316 µM, first compound 0.1 µM
[27] = second compound 0.316 µM, first compound 0.316 µM
[28] = second compound 0.316 µM, first compound 1 µM
[29] = second compound 0.316 µM, first compound 3.16 µM
[30] = second compound 0.316 µM, first compound 10 µM
[31] = second compound 1 µM, first compound 0.0316 µM
[32] = second compound 1 µM, first compound 0.1 µM
[33] = second compound 1 µM, first compound 0.316 µM
[34] = second compound 1 µM, first compound 1 µM
[35] = second compound 1 µM, first compound 3.16 µM
[36] = second compound 1 µM, first compound 10 µM
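Also: spheroids exposed to the agents for 7 days before readout.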
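For viability, T/C in this document: luminescence viability as percent of DMSO vehicle control wells.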

CC1(O)CCCC1n1c(=O)c(C(F)F)cc2cnc(NC3CCN(S(C)(=O)=O)CC3)nc21 (stereo unspecified) + C=CC(=O)N1CCN(c2nc(OCC3CCCN3C)nc3c(F)c(-c4nc(N)cc(C)c4C(F)(F)F)c(Cl)cc23)C(C)C1
IC50 (second compound 0.00316 µM): > 10 µM | IC50 (second compound 0.01 µM): > 10 µM | IC50 (second compound 0.0316 µM): > 10 µM | IC50 (second compound 0.1 µM): > 10 µM | IC50 (second compound 0.316 µM): > 10 µM | IC50 (second compound 1 µM): > 10 µM | viability, T/C [1]: 97.6% | viability, T/C [2]: 98% | viability, T/C [3]: 77.6% | viability, T/C [4]: 68.3% | viability, T/C [5]: 64.8% | viability, T/C [6]: 101% | viability, T/C [7]: 101% | viability, T/C [8]: 97.1% | viability, T/C [9]: 83.1% | viability, T/C [10]: 75.5% | viability, T/C [11]: 68.6% | viability, T/C [12]: 65.7% | viability, T/C [13]: 102% | viability, T/C [14]: 93.2% | viability, T/C [15]: 82.8% | viability, T/C [16]: 76.1% | viability, T/C [17]: 60% | viability, T/C [18]: 95.2% | viability, T/C [19]: 91.5% | viability, T/C [20]: 95% | viability, T/C [21]: 93.5% | viability, T/C [22]: 75.2% | viability, T/C [23]: 54.1% | viability, T/C [24]: 89.7% | viability, T/C [25]: 97.2% | viability, T/C [26]: 92.5% | viability, T/C [27]: 89.2% | viability, T/C [28]: 70.2% | viability, T/C [29]: 64.4% | viability, T/C [30]: 69.1% | viability, T/C [31]: 98.6% | viability, T/C [32]: 104% | viability, T/C [33]: 89.9% | viability, T/C [34]: 77.4% | viability, T/C [35]: 70.8% | viability, T/C [36]: 53%

CCC(CC)c1cc(NC2CCC(N)C2)n2nccc2n1 (stereo unspecified) + C=CC(=O)N1CCN(c2nc(OCC3CCCN3C)nc3c(F)c(-c4nc(N)cc(C)c4C(F)(F)F)c(Cl)cc23)C(C)C1
IC50 (second compound 0.00316 µM): 4.14 µM | IC50 (second compound 0.01 µM): 4.69 µM | IC50 (second compound 0.0316 µM): 5.54 µM | IC50 (second compound 0.1 µM): 4.92 µM | IC50 (second compound 0.316 µM): 4.66 µM | IC50 (second compound 1 µM): 4.54 µM | viability, T/C [1]: 99.6% | viability, T/C [2]: 100% | viability, T/C [3]: 104% | viability, T/C [4]: 95.2% | viability, T/C [5]: 64.2% | viability, T/C [6]: 3.95% | viability, T/C [7]: 102% | viability, T/C [8]: 108% | viability, T/C [9]: 106% | viability, T/C [10]: 102% | viability, T/C [11]: 73.5% | viability, T/C [12]: 5.05% | viability, T/C [13]: 100% | viability, T/C [14]: 115% | viability, T/C [15]: 100% | viability, T/C [16]: 103% | viability, T/C [17]: 92.5% | viability, T/C [18]: 5.29% | viability, T/C [19]: 102% | viability, T/C [20]: 113% | viability, T/C [21]: 102% | viability, T/C [22]: 107% | viability, T/C [23]: 79.1% | viability, T/C [24]: 3.6% | viability, T/C [25]: 97% | viability, T/C [26]: 97.2% | viability, T/C [27]: 104% | viability, T/C [28]: 109% | viability, T/C [29]: 73.3% | viability, T/C [30]: 4.47% | viability, T/C [31]: 107% | viability, T/C [32]: 105% | viability, T/C [33]: 95.8% | viability, T/C [34]: 102% | viability, T/C [35]: 70.5% | viability, T/C [36]: 5.01%

CCN1CCN(Cc2ccc(Nc3ncc(F)c(-c4cc(F)c5nc(C)n(C(C)C)c5c4)n3)nc2)CC1 + C=CC(=O)N1CCN(c2nc(OCC3CCCN3C)nc3c(F)c(-c4nc(N)cc(C)c4C(F)(F)F)c(Cl)cc23)C(C)C1
IC50 (second compound 0.00316 µM): > 1 µM | IC50 (second compound 0.01 µM): > 1 µM | IC50 (second compound 0.0316 µM): > 1 µM | IC50 (second compound 0.1 µM): > 1 µM | IC50 (second compound 0.316 µM): > 1 µM | IC50 (second compound 1 µM): > 1 µM | viability, T/C (second compound 0.00316 µM, first compound 0.00316 µM): 108% | viability, T/C (second compound 0.00316 µM, first compound 0.01 µM): 99.2% | viability, T/C [1]: 106% | viability, T/C [2]: 76% | viability, T/C [3]: 66.9% | viability, T/C [4]: 80.2% | viability, T/C (second compound 0.01 µM, first compound 0.00316 µM): 93.5% | viability, T/C (second compound 0.01 µM, first compound 0.01 µM): 101% | viability, T/C [7]: 88.2% | viability, T/C [8]: 78.3% | viability, T/C [9]: 66.7% | viability, T/C [10]: 71.4% | viability, T/C (second compound 0.0316 µM, first compound 0.00316 µM): 99.1% | viability, T/C (second compound 0.0316 µM, first compound 0.01 µM): 94.3% | viability, T/C [13]: 96.7% | viability, T/C [14]: 68.3% | viability, T/C [15]: 66.9% | viability, T/C [16]: 100% | viability, T/C (second compound 0.1 µM, first compound 0.00316 µM): 102% | viability, T/C (second compound 0.1 µM, first compound 0.01 µM): 108% | viability, T/C [19]: 98.8% | viability, T/C [20]: 70% | viability, T/C [21]: 73.3% | viability, T/C [22]: 82.5% | viability, T/C (second compound 0.316 µM, first compound 0.00316 µM): 114% | viability, T/C (second compound 0.316 µM, first compound 0.01 µM): 94.8% | viability, T/C [25]: 101% | viability, T/C [26]: 73% | viability, T/C [27]: 77.9% | viability, T/C [28]: 81.1% | viability, T/C (second compound 1 µM, first compound 0.00316 µM): 102% | viability, T/C (second compound 1 µM, first compound 0.01 µM): 108% | viability, T/C [31]: 94.6% | viability, T/C [32]: 70.8% | viability, T/C [33]: 69.9% | viability, T/C [34]: 72.9%

From PubChem BioAssay AID2060909 (Molecular Pharmacology Branch, DTP, NCI, 2025)
